{
  "source": "patent US10934310B2",
  "about": "“Inhibitors of Bruton's tyrosine kinase and method of their use” (JANSSEN PHARMACEUTICA NV, priority 2015, dated 2021)",
  "molecular_target": "unphosphorylated-BTK kinase domain (UP-BTK), GST-tagged human BTK (389-659aa) (Homo sapiens (Human), UniProt Q06187)",
  "sequence (Q06187 389-659)": "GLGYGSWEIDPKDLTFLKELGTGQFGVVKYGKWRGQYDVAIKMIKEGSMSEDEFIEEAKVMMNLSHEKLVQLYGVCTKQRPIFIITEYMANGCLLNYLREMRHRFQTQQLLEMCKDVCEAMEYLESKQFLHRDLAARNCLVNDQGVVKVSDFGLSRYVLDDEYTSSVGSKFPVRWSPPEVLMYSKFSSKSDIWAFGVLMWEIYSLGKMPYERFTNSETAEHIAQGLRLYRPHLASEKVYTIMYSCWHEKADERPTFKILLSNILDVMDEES",
  "assay": "BTK Kinase Lanthascreen Binding Assay",
  "conditions": "for BTK_I_binding pIC50: compound, 50 nM Tracer 236, 2 nM anti-GST antibody, 60 minutes, pIC50 = negative log of the IC50 in molar",
  "procedure": "BTK Kinase Lanthascreen Binding Assay:\nA BTK kinase lanthascreen binding assay monitors compound binding to unphosphorylated-BTK kinase domain (UP-BTK), by competing with a fluorescent labeled tracer. […] Data were analyzed using Xlfit™ version 5.3 from ID Business Solutions (Guildford), Microsoft Excel add-in. pIC50 refers to the negative log of the IC50 in molar.",
  "data": [
    {"smiles": "C=CC(=O)N[C@H]1CCC[C@@H]1NC(=O)c1sc2nccc3c2c1NC(=O)N3c1ccc(Oc2ccccc2)cc1C", "note": "(single isomer, unassigned) [Example 116, N-((1S,2S)-2-Acrylamidocyclopentyl)-5-(*S)-(2-methyl-4-phenoxyphenyl)-4-oxo-4,5-dihydro-3H-1-thia-3,5,8-triazaacenaphthylene-2-carboxamide]", "values": [
      {"measurement": "BTK_I_binding pIC50", "value": 7.30}
    ]},
    {"smiles": "Cc1cc(Oc2ccccc2)ccc1N1C(=O)Nc2c(C(=O)N[C@@H]3CCC[C@H]3N)sc3nccc1c23", "note": "(single isomer, unassigned) [Example 120, N-((1R,2R)-2-Aminocyclopentyl)-5-(*S)-(2-methyl-4-phenoxyphenyl)-4-oxo-4,5-dihydro-3H-1-thia-3,5,8-triazaacenaphthylene-2-carboxamide]", "values": [
      {"measurement": "BTK_I_binding pIC50", "value": 7.54}
    ]},
    {"smiles": "CNCC(=O)N[C@H]1CCC[C@H]1NC(=O)c1sc2nccc3c2c1NC(=O)N3c1ccc(Oc2ccccc2)cc1C", "note": "(single isomer, unassigned) [Example 122, 5-(*S)-(2-Methyl-4-phenoxyphenyl)-N-((1R,2S)-2-(2-(methylamino)acetamido)cyclopentyl)-4-oxo-4,5-dihydro-3H-1-thia-3,5,8-triazaacenaphthylene-2-carboxamide]", "values": [
      {"measurement": "BTK_I_binding pIC50", "value": 7.18}
    ]},
    {"smiles": "Cc1cc(Oc2ccccc2)ccc1N1C(=O)Nc2c(C(=O)N[C@H]3CCC[C@@H]3NC(=O)CN(C)C)sc3nccc1c23", "note": "(single isomer, unassigned) [Example 123, N-((1S,2S)-2-(2-(Dimethylamino)acetamido)cyclopentyl)-5-(*S)-(2-methyl-4-phenoxyphenyl)-4-oxo-4,5-dihydro-3H-1-thia-3,5,8-triazaacenaphthylene-2-carboxamide]", "values": [
      {"measurement": "BTK_I_binding pIC50", "value": 7.07}
    ]},
    {"smiles": "CNCC(=O)N[C@H]1CCCC[C@H]1NC(=O)c1sc2nccc3c2c1NC(=O)N3c1ccc(Oc2ccccc2)cc1C", "note": "(single isomer, unassigned) [Example 125, 5-(*S)-(2-Methyl-4-phenoxyphenyl)-N-((1R,2S)-2-(2-(methylamino)acetamido)cyclohexyl)-4-oxo-4,5-dihydro-3H-1-thia-3,5,8-triazaacenaphthylene-2-carboxamide]", "values": [
      {"measurement": "BTK_I_binding pIC50", "value": 7.11}
    ]},
    {"smiles": "Cc1cc(Oc2ccccc2)ccc1N1C(=O)Nc2c(C(=O)N[C@@H]3CCC[C@@H]3NC(=O)CN(C)C)sc3nccc1c23", "note": "(single isomer, unassigned) [Example 128, N-((1R,2S)-2-(2-(Dimethylamino)acetamido)cyclopentyl)-5-(*S)-(2-methyl-4-phenoxyphenyl)-4-oxo-4,5-dihydro-3H-1-thia-3,5,8-triazaacenaphthylene-2-carboxamide]", "values": [
      {"measurement": "BTK_I_binding pIC50", "value": 7.10}
    ]},
    {"smiles": "Cc1cc(Oc2ccccc2)ccc1N1C(=O)Nc2c(C(=O)N[C@@H]3CCCC[C@@H]3NC(=O)CN)sc3nccc1c23", "note": "(single isomer, unassigned) [Example 129, N-((1R,2S)-2-(2-Aminoacetamido)cyclohexyl)-5-(*S)-(2-methyl-4-phenoxyphenyl)-4-oxo-4,5-dihydro-3H-1-thia-3,5,8-triazaacenaphthylene-2-carboxamide]", "values": [
      {"measurement": "BTK_I_binding pIC50", "value": 7.39}
    ]},
    {"smiles": "Cc1cc(Oc2ccccc2)ccc1N1C(=O)Nc2c(C(=O)N[C@H]3CCC[C@@H]3NC(=O)CN)sc3nccc1c23", "note": "(single isomer, unassigned) [Example 130, N-((1S,2S)-2-(2-Aminoacetamido)cyclopentyl)-5-(*S)-(2-methyl-4-phenoxyphenyl)-4-oxo-4,5-dihydro-3H-1-thia-3,5,8-triazaacenaphthylene-2-carboxamide]", "values": [
      {"measurement": "BTK_I_binding pIC50", "value": 7.17}
    ]},
    {"smiles": "Cc1cc(Oc2ccccc2)ccc1N1C(=O)Nc2c(C(=O)N[C@@H]3CCC[C@@H]3NC(=O)CN)sc3nccc1c23", "note": "(single isomer, unassigned) [Example 131, N-((1R,2S)-2-(2-Aminoacetamido)cyclopentyl)-5-(*S)-(2-methyl-4-phenoxyphenyl)-4-oxo-4,5-dihydro-3H-1-thia-3,5,8-triazaacenaphthylene-2-carboxamide]", "values": [
      {"measurement": "BTK_I_binding pIC50", "value": 7.40}
    ]},
    {"smiles": "Cc1cc(Oc2ccccc2)ccc1N1C(=O)Nc2c(C(=O)N[C@@H]3CCCC[C@@H]3NC(=O)CN(C)C)sc3nccc1c23", "note": "(single isomer, unassigned) [Example 132, N-((1R,2S)-2-(2-(Dimethylamino)acetamido)cyclohexyl)-5-(*S)-(2-methyl-4-phenoxyphenyl)-4-oxo-4,5-dihydro-3H-1-thia-3,5,8-triazaacenaphthylene-2-carboxamide]", "values": [
      {"measurement": "BTK_I_binding pIC50", "value": 7.27}
    ]},
    {"smiles": "CNCC(=O)N[C@H]1CCC[C@@H]1NC(=O)c1sc2nccc3c2c1NC(=O)N3c1ccc(Oc2ccccc2)cc1C", "note": "(single isomer, unassigned) [Example 133, 5-(*S)-(2-Methyl-4-phenoxyphenyl)-N-((1S,2S)-2-(2-(methylamino)acetamido)cyclopentyl)-4-oxo-4,5-dihydro-3H-1-thia-3,5,8-triazaacenaphthylene-2-carboxamide]", "values": [
      {"measurement": "BTK_I_binding pIC50", "value": 7.13}
    ]},
    {"smiles": "CC(=O)N[C@H]1CCC[C@@H]1NC(=O)c1sc2nccc3c2c1NC(=O)N3c1ccc(Oc2ccccc2)cc1C", "note": "(single isomer, unassigned) [Example 134, N-((1S,2S)-2-Acetamidocyclopentyl)-5-(*S)-(2-methyl-4-phenoxyphenyl)-4-oxo-4,5-dihydro-3H-1-thia-3,5,8-triazaacenaphthylene-2-carboxamide]", "values": [
      {"measurement": "BTK_I_binding pIC50", "value": 6.76}
    ]},
    {"smiles": "Cc1cc(Oc2ccccc2)ccc1N1C(=O)Nc2c(C(=O)N[C@H]3CCC[C@@H]3N)sc3nccc1c23", "note": "(single isomer, unassigned) [Example 135, N-((1S,2S)-2-Aminocyclopentyl)-5-(*S)-(2-methyl-4-phenoxyphenyl)-4-oxo-4,5-dihydro-3H-1-thia-3,5,8-triazaacenaphthylene-2-carboxamide]", "values": [
      {"measurement": "BTK_I_binding pIC50", "value": 6.82}
    ]},
    {"smiles": "CC(=O)N[C@H]1CCCC[C@H]1NC(=O)c1sc2nccc3c2c1NC(=O)N3c1ccc(Oc2ccccc2)cc1C", "note": "(single isomer, unassigned) [Example 136, N-((1R,2S)-2-Acetamidocyclohexyl)-5-(*S)-(2-methyl-4-phenoxyphenyl)-4-oxo-4,5-dihydro-3H-1-thia-3,5,8-triazaacenaphthylene-2-carboxamide]", "values": [
      {"measurement": "BTK_I_binding pIC50", "value": 7.52}
    ]},
    {"smiles": "CC(=O)N[C@H]1CCC[C@H]1NC(=O)c1sc2nccc3c2c1NC(=O)N3c1ccc(Oc2ccccc2)cc1C", "note": "(single isomer, unassigned) [Example 138, N-((1R,2S)-2-Acetamidocyclopentyl)-5-(*S)-(2-methyl-4-phenoxyphenyl)-4-oxo-4,5-dihydro-3H-1-thia-3,5,8-triazaacenaphthylene-2-carboxamide]", "values": [
      {"measurement": "BTK_I_binding pIC50", "value": 7.49}
    ]},
    {"smiles": "Cc1cc(Oc2ccccc2)ccc1N1C(=O)Nc2c(C(=O)N[C@H]3CCC[C@H]3NC(=O)CN)sc3nccc1c23", "note": "(single isomer, unassigned) [Example 154, N-((1S,2R)-2-(2-Aminoacetamido)cyclopentyl)-5-(*S)-(2-methyl-4-phenoxyphenyl)-4-oxo-4,5-dihydro-3H-1-thia-3,5,8-triazaacenaphthylene-2-carboxamide]", "values": [
      {"measurement": "BTK_I_binding pIC50", "value": 6.36}
    ]},
    {"smiles": "Cc1cc(Oc2ccccc2)ccc1N1C(=O)Nc2c(C(=O)N[C@H]3CCC[C@H]3NC(=O)CN(C)C)sc3nccc1c23", "note": "(single isomer, unassigned) [Example 155, N-((1S,2R)-2-(2-(Dimethylamino)acetamido)cyclopentyl)-5-(*S)-(2-methyl-4-phenoxyphenyl)-4-oxo-4,5-dihydro-3H-1-thia-3,5,8-triazaacenaphthylene-2-carboxamide]", "values": [
      {"measurement": "BTK_I_binding pIC50", "value": 6.35}
    ]},
    {"smiles": "CNCC(=O)N[C@@H]1CCC[C@@H]1NC(=O)c1sc2nccc3c2c1NC(=O)N3c1ccc(Oc2ccccc2)cc1C", "note": "(single isomer, unassigned) [Example 156, 5-(*S)-(2-Methyl-4-phenoxyphenyl)-N-((1S,2R)-2-(2-(methylamino)acetamido)cyclopentyl)-4-oxo-4,5-dihydro-3H-1-thia-3,5,8-triazaacenaphthylene-2-carboxamide]", "values": [
      {"measurement": "BTK_I_binding pIC50", "value": 6.26}
    ]},
    {"smiles": "CC(=O)N[C@@H]1CCC[C@@H]1NC(=O)c1sc2nccc3c2c1NC(=O)N3c1ccc(Oc2ccccc2)cc1C", "note": "(single isomer, unassigned) [Example 162, N-((1S,2R)-2-Acetamidocyclopentyl)-5-(*S)-(2-methyl-4-phenoxyphenyl)-4-oxo-4,5-dihydro-3H-1-thia-3,5,8-triazaacenaphthylene-2-carboxamide]", "values": [
      {"measurement": "IC50", "setting": "read-out: BTK_I_binding pIC50 (converted)", "value": "> 1000", "unit": "nM"}
    ]},
    {"smiles": "C=CC(=O)N[C@H]1CCC[C@H]1NC(=O)c1sc2nccc3c2c1NC(=O)N3c1ccc(OC(C)C)cc1C", "note": "(single isomer, unassigned) [Example 165, N-((1R,2S)-2-Acrylamidocyclopentyl)-5-(*R)-(4-isopropoxy-2-methylphenyl)-4-oxo-4,5-dihydro-3H-1-thia-3,5,8-triazaacenaphthylene-2-carboxamide]", "values": [
      {"measurement": "BTK_I_binding pIC50", "value": 8.30}
    ]},
    {"smiles": "C=CC(=O)N[C@H]1CCC[C@H]1NC(=O)c1sc2nccc3c2c1NC(=O)N3c1cnc(Oc2ccccc2)nc1C", "note": "(single isomer, unassigned) [Example 166, N-((1R,2S)-2-Acrylamidocyclopentyl)-5-(*S)-(4-methyl-2-phenoxypyrimidin-5-yl)-4-oxo-4,5-dihydro-3H-1-thia-3,5,8-triazaacenaphthylene-2-carboxamide]", "values": [
      {"measurement": "BTK_I_binding pIC50", "value": 8.13}
    ]},
    {"smiles": "Cc1cc(Oc2ccccc2)ncc1N1C(=O)Nc2c(C(=O)N[C@@H]3CCC[C@@H]3N)sc3nccc1c23", "note": "(single isomer, unassigned) [Example 170, N-((1R,2S)-2-Aminocyclopentyl)-5-(*S)-(4-methyl-6-phenoxypyridin-3-yl)-4-oxo-4,5-dihydro-3H-1-thia-3,5,8-triazaacenaphthylene-2-carboxamide]", "values": [
      {"measurement": "BTK_I_binding pIC50", "value": 7.02}
    ]}
  ]
}
